Results on one molecule are retold here after patent US20050136108A1, “Stepwise delivery of topiramate over prolonged period of time” (priority 2003, published 2005).

≈ marks a conversion by molar mass, not a printed value.

The term solubility denotes how much of the substance goes into solution per volume. Lower therefore signals little dissolved substance.

For data set [1] the following is noted: in vivo; cited from earlier work.
Data set [2] in a line: Intrinsic dissolution rate in water. Type of data set: physicochemical. The conditions noted are these: water at 37° C. An excerpt: Intrinsic dissolution is a method that utilizes a compressed disc of known area (a constant surface), effectively eliminating surface area and surface electrical charges as dissolution variables. The dissolution rate obtained by this method is termed the intrinsic dissolution rate and is characteristic of each solid compound in a given solvent under the fixed experimental conditions. The value is generally expressed as mg dissolved per minute per centimeters squared and is useful in predicting probable absorption problems due to dissolution rate. […] See USP General Chapter <1087> for more information.

For data set [3] the following is noted: cited from earlier work.
Data set [4] in a line: Aqueous solubility of topiramate. It counts as physicochemical. Particulars: water, 37 °C, thermodynamic from solid, range stated without source. The procedure:
Aqueous solubility is determined by adding the therapeutic agent to stirred or agitated water maintained in a constant temperature bath at a temperature of 37 degrees centigrade until no more agent dissolves. The resulting solution saturated with active agent is then filtered, typically under pressure through a 0.8-micron Millipore filter, and the concentration in solution is measured by any appropriate analytical method including gravimetric, ultraviolet spectrophometry, chromatography, and the like.

Turning to `CC1(C)O[C@@H]2[C@@H](CO[C@@]3(COS(N)(=O)=O)OC(C)(C)O[C@@H]23)O1` [Topiramate, topiramate], in data set [1], the excretion entry is listed as “excreted largely through the urine”, the metabolism result is “not extensively metabolized” and the “pharmacokinetics (dose dependence of blood plasma concentration)” value was “linear”. Besides, the “dissolution rate in water” value in data set [2] is on record as “below 0.6 mg/min/cm2”. Besides, the “solubility in alkaline solutions containing sodium hydroxide or sodium phosphate” value in data set [3] (alkaline solutions) is listed as “soluble”. For the same molecule, the “solubility in acetone, dimethylsulfoxide and ethanol” value in data set [3] (organic solvents) is given as “soluble”. Further, the “solubility of topiramate in water” value in data set [3] (water) is listed as “about 9.8 mg/ml”. Further, in data set [4], the solubility lay within 9.8 to 13 mg/mL (≈ 28.9 to 38.3 mM).
